Here are results for 16 molecules from patent US20260226064A1, “POLYCYCLIC COMPOUND FOR TREATING NEUROLOGICAL DISEASES AND TUMORS” (Shanghai Institute of Organic Chemistry, Chinese Academy of …, priority 2023, published 2026).

Like-named read-outs stand apart in the source and are kept apart here.

In series [1] the test system is acetylated microtubule in HEK293T cells. Put plainly: Microtubule-Stabilizing Activity Assay (acetylated microtubule immunoblot, HEK293T, colchicine challenge). It is filed as cell-based. The settings on record: 1 h pre-incubation, then colchicine 1 μM 3 h, relative to CNDR-51657 at 500 nM = 1.00; for Microtubule-Stabilizing Activity 50 nM: compound 50 nM; for Microtubule-Stabilizing Activity 500 nM: compound 500 nM. The method, then: Compound solvent: 100% dimethyl sulfoxide (DMSO). Cell line: HEK293T (ATCC, CRL3216). Culture conditions: Cells were cultured in Dulbecco's Modified Eagle's Medium (DMEM) containing 10% fetal bovine serum and 1% penicillin/streptomycin. Cells were cultured at 37° C. in a Thermo-Fisher incubator with a humidified atmosphere of 5% carbon dioxide.
One day prior to the experiment, 100,000 cells were seeded at a density of 200,000 cells/ml in a 24-well plate.
On the day of the experiment, 20 μl of PBS phosphate buffer containing the test compound at experimental concentrations or an equivalent volume of DMSO was added to each well. After incubating at 37° C. for 1 hour, colchicine was added to each well at a final concentration of 1 μM, followed by an additional 3-hour incubation at 37° C. The plate was then placed on ice. The medium in each well was removed, and the cells were washed with ice-cold PBS. After aspirating the PBS, 0.1 mL of ice-cold RIPA lysis buffer (containing 0.5% sodium deoxycholate, 0.1% SDS, 1% NP-40, 5 mM EDTA, pH 8.0) was quickly added. Prior to use, a commercial protease inhibitor cocktail (1:500) and 1 μM deacetylase inhibitor Trichostatin A (Sangon Biotech Co., Ltd.) were added to the cell lysis buffer. The cell lysate were transferred to a 1.5 ml centrifuge tube, sonicated, and centrifuged at 13,000 rpm for 10 minutes. The supernatant was collected, and protein concentration was determined using the BCA assay.
Based on existing literature (Black, 1989; Kurt, 2011), acetylated microtubule was used as an indicator of microtubule polymerization to assess the microtubule-stabilizing efficacy of the compounds. HEK293T cell lysates were analyzed by SDS-PAGE (7.5% gel) and immunoblotted using acetylated microtubule antibody (1:20,000, Sigma-Aldrich, T7451) and α-microtubule antibody (1:2,000, Proteintech, 11224-1-AP). After incubation with fluorescent dye-conjugated IgG (1:40,000, Licor), the blots were visualized using an Odyssey-Dlx imaging system. Grayscale analysis was performed using ImageJ.
The compound activity was quantified with the microtubule-stabilizing activity of CNDR-51657 (C5) (Jane, 2016) at 500 nM as 1.00.

Series [2] can be described thus: Mouse Oral Pharmacokinetic Study. It counts as in vivo. The settings on record: mouse, male CD1 mice, oral gavage 10 mg/kg; for Kp at 4 h: brain/plasma, read-out: Cbrain/Cplasma; for AUC(0-t) / Cmax / Tmax: plasma; for AUC(0-t): 0-4 h, read-out: AUC0-4h; for Cmax: read-out: Cmax; for Tmax: read-out: Tmax. The method, then: Healthy male CD1 mice were used as experimental animals. The drug was administered by oral gavage at a dose of 10 mg/kg with a dosing volume of 10 mL/kg. Drug preparation: 10 mg of the compound was placed in 10 mL of 50% PEG400 or 20% HPb-cyclodextrin, ground and shaken to ensure uniform distribution of the compound in small particle size, followed by oral administration. Blood samples were collected at 30 min, 1 h, 2 h, and 4 h post-dose, and brain tissues were sampled at 4 h. EDTA dipotassium salt was added to the blood samples, and plasma was obtained after centrifugation. The supernatant was analyzed after dilution with 5 volumes of acetonitrile and centrifugation. The brain tissue homogenate was diluted with 3.5 volumes of acetonitrile, centrifuged, and the supernatant was collected for analysis. The samples were then analyzed by liquid chromatography-tandem mass spectrometry (LC-MS/MS): the instrument was AB Sciex 3500; the mobile phase consisted of 0.1% formic acid in water (A)/0.1% formic acid in acetonitrile (B), with gradient elution.

Where [3] appears, read: brain tissue at 4 h, read-out: Cbrain@4h.
The mark [4] stands for this setting: plasma at 4 h, read-out: Cpasma@4h.

As usually defined, the Cmax is the maximum level reached in the sampled fluid or tissue. A word on the Tmax: it is the time at which the peak concentration occurs. Consider `C[C@H](Nc1c(-c2c(F)cc(C#CC3[C@H]4CN(C)C[C@@H]34)cc2F)c(Cl)nc2ncnn12)C(F)(F)F` (stereo partly drawn) [Example 48, 5-Chloro-6-(2,6-difluoro-4-(((1R,5S,6s)-3-methyl-3-azabicyclo[3.1.0]hexan-6-yl)ethynyl)phenyl)-N—((S)-1,1,1-trifluoropropan-2-yl)-[1,2,4]triazolo[1,5-a]pyrimidin-7-amine], for which, in series [1], the “Microtubule-Stabilizing Activity 50 nM” value is on record as 1.42 and the “Microtubule-Stabilizing Activity 500 nM” value is 1.66. In series [2], the Kp at 4 h amounted to 2.83, the AUC(0-t) was 1810 ng·h/mL, the maximum concentration (Cmax) came to 591 ng/mL and the time to peak (Tmax) was 45 min. Besides, the concentration at 4 h in series [2] (setting [3]) stood at 1020 ng/mL. The concentration at 4 h in series [2] (setting [4]) is 359 ng/mL.
For `C[C@@H](Nc1c(-c2c(F)cc(C#C[C@@H]3[C@H]4CN(C)C[C@@H]34)cc2F)c(Cl)nc2ncnn12)C1CCC1` [Example 46, 5-Chloro-N—((R)-1-cyclobutylethyl)-6-(2,6-difluoro-4-(((1R,5S,6s)-3-methyl-3-azabicyclo[3.1.0]hexan-6-yl)ethynyl)phenyl)-[1,2,4]triazolo[1,5-a]pyrimidin-7-amine], in series [1], the “Microtubule-Stabilizing Activity 50 nM” value is listed as 1.76 and the “Microtubule-Stabilizing Activity 500 nM” value stood at 1.44. For the same molecule, in series [2], the Kp at 4 h came out at 1.09, the AUC(0-t) worked out at 1600 ng·h/mL, the highest concentration (Cmax) was determined as 572 ng/mL and the Tmax was determined as 30 min. Also, the concentration at 4 h in series [2] (setting [3]) came out at 356 ng/mL. For the same molecule, the concentration at 4 h in series [2] (setting [4]) came out at 325 ng/mL.
Regarding `CNC1CCC2(CC1)CC(Oc1cc(F)c(-c3c(Cl)nc4ncnn4c3N[C@@H](C)C(F)(F)F)c(F)c1)C2` (stereo partly drawn) [Example 19, (S)-5-Chloro-6-(2,6-difluoro-4-((7-(methylamino)spiro[3.5]nonan-2-yl)oxy)phenyl)-N-(1,1,1-trifluoropropan-2-yl)-[1,2,4]triazolo[1,5-a]pyrimidin-7-amine], in series [1], the “Microtubule-Stabilizing Activity 50 nM” value was 0.16 and the “Microtubule-Stabilizing Activity 500 nM” value amounted to 0.62.
Consider `CN(C)C1CC2(CC(Oc3cc(F)c(-c4c(Cl)nc5ncnn5c4NCC(F)(F)F)c(F)c3)C2)C1` (stereo not shown) [Example 16], for which, in series [1], the “Microtubule-Stabilizing Activity 50 nM” value was 0.07 and the “Microtubule-Stabilizing Activity 500 nM” value is 1.66.
Regarding `C[C@H](Nc1c(-c2c(F)cc(OC3CC4(C3)CC(N(C)C)C4)cc2F)c(Cl)nc2ncnn12)C(F)(F)F` (stereo partly drawn) [Example 12, (S)-5-chloro-6-(4-((6-(dimethylamino)spiro[3.3]heptan-2-yl)oxy)-2,6-difluorophenyl)-N-(1,1,1-trifluoropropan-2-yl)-[1,2,4]triazolo[1,5-a]pyrimidin-7-amine], in series [1], the “Microtubule-Stabilizing Activity 50 nM” value is on record as 0.30 and the “Microtubule-Stabilizing Activity 500 nM” value is reported as 0.78.
For `C[C@H](Nc1c(-c2c(F)cc(OC3CC4(CCNCC4)C3)cc2F)c(Cl)nc2ncnn12)C(F)(F)F` [Example 7, (S)-6-(4-((7-Azaspiro[3.5]nonan-2-yl)oxy)-2,6-difluorophenyl)-5-chloro-N-(1,1,1-trifluoropropan-2-yl)-[1,2,4]triazolo[1,5-a]pyrimidin-7-amine], in series [1], the “Microtubule-Stabilizing Activity 50 nM” value was 0.42 and the “Microtubule-Stabilizing Activity 500 nM” value came out at 0.81.
For the molecule `C[C@@H](Nc1c(-c2c(F)cc(C#C[C@@H]3[C@H]4CNC[C@@H]34)cc2F)c(Cl)nc2ncnn12)C1CCC1.Cl` [Example 45, 6-(4-(((1R,5S,6s)-3-Azabicyclo[3.1.0]hex-6-yl)ethynyl)-2,6-difluorophenyl)-5-chloro-N—((R)-1-cyclobutylethyl)-[1,2,4]triazolo[1,5-a]pyrimidin-7-amine hydrochloride], in series [1], the “Microtubule-Stabilizing Activity 50 nM” value is 1.1 and the “Microtubule-Stabilizing Activity 500 nM” value worked out at 1.3.
With `CC(C)[C@@H](C)Nc1c(-c2c(F)cc(OC3CC4(CCN(C)CC4)C3)cc2F)c(Cl)nc2ncnn12` [Example 6, (R)-6-(4-((7-Methyl-7-azaspiro[3.5]nonan-2-yl)oxy)-2,6-difluorophenyl)-5-chloro-N-(3-methylbutan-2-yl)-[1,2,4]triazolo[1,5-a]pyrimidin-7-amine], in series [1], the “Microtubule-Stabilizing Activity 50 nM” value was determined as 0.25 and the “Microtubule-Stabilizing Activity 500 nM” value is 0.38.
Turning to `CNC1CC2(C1)CC(Oc1cc(F)c(-c3c(Cl)nc4ncnn4c3N[C@H](C)C3CCC3)c(F)c1)C2` (stereo partly drawn) [Example 13, (R)-5-chloro-N-(1-cyclobutylethyl)-6-(2,6-difluoro-4-((6-(methylamino)spiro[3.3]heptan-2-yl)oxy)phenyl)-[1,2,4]triazolo[1,5-a]pyrimidin-7-amine], in series [1], the “Microtubule-Stabilizing Activity 50 nM” value was found to be 0.35 and the “Microtubule-Stabilizing Activity 500 nM” value was 1.39.
The like results for `C[C@H](Nc1c(-c2c(F)cc(O[C@@H]3C[C@H]4CNC[C@H]4C3)cc2F)c(Cl)nc2ncnn12)C(F)(F)F` [Example 42, 5-Chloro-6-(2,6-difluoro-4-(((3aR,5s,6aS)-octahydrocyclopenta[c]pyrrol-5-yl)oxy)phenyl)-N—((S)-1,1,1-trifluoropropan-2-yl)-[1,2,4]triazolo[1,5-a]pyrimidin-7-amine] were, in that order, 0.25 and 0.73.
Consider `C[C@H](Nc1c(-c2c(F)cc(OC[C@@H]3[C@@H]4CNC[C@@H]43)cc2F)c(Cl)nc2ncnn12)C(F)(F)F` [Example 31, 6-(4-(((1R,5S,6s)-3-Azabicyclo[3.1.0]hex-6-yl)methoxy)-2,6-difluorophenyl)-5-chloro-N—((S)-1,1,1-trifluoropropan-2-yl)-[1,2,4]triazolo[1,5-a]pyrimidin-7-amine], for which, in series [1], the “Microtubule-Stabilizing Activity 50 nM” value amounted to 0.35 and the “Microtubule-Stabilizing Activity 500 nM” value came out at 1.25.
Consider `CC(C)[C@@H](C)Nc1c(-c2c(F)cc(/C=C/[C@@H]3[C@H]4CNC[C@@H]34)cc2F)c(Cl)nc2ncnn12.Cl` [Example 51, 6-(4-((E)-2-((1R,5S,6s)-3-Azabicyclo[3.1.0]hexan-6-yl)vinyl)-2,6-difluorophenyl)-5-chloro-N—((R)-3-methylbutan-2-yl)-[1,2,4]triazolo[1,5-a]pyrimidin-7-amine hydrochloride], for which the “Microtubule-Stabilizing Activity 500 nM” value in series [1] was 1.85.
Consider `C[C@H](Nc1c(-c2c(F)cc(C#C[C@@H]3[C@H]4CNC[C@@H]34)cc2F)c(Cl)nc2ncnn12)C(F)(F)F.Cl` [Example 47], for which, in series [1], the “Microtubule-Stabilizing Activity 50 nM” value is recorded as 1.23 and the “Microtubule-Stabilizing Activity 500 nM” value is on record as 1.38.
As for “6-(4-(((1R,5S,6r)-3-Azabicyclo[3.1.0]hexan-6-yl)methoxy)-2,6-difluorophenyl)-5-methyl-N-(2,2,2-trifluoroethyl)-[1,2,4]triazolo[1,5-a]pyrimidin-7-amine [Example 35]”, in series [1], the “Microtubule-Stabilizing Activity 50 nM” value is recorded as 0.87 and the “Microtubule-Stabilizing Activity 500 nM” value is 1.80.
In the same order, the values of `CC(C)[C@@H](C)Nc1c(-c2c(F)cc(OC3CC4(CNC4)C3)cc2F)c(Cl)nc2ncnn12` [Example 1, (R)-6-(4-((2-azaspiro[3.3]hept-6-yl)oxy)-2,6-difluorophenyl)-5-chloro-N-(3-methylbut-2-yl)-[1,2,4]triazolo[1,5-a]pyrimidin-7-amine] are 0.36 and 0.71.
The like results for `CC(C)[C@@H](C)Nc1c(-c2c(F)cc(O[C@@H]3C[C@H]4CNC[C@H]4C3)cc2F)c(Cl)nc2ncnn12` [Example 40] were, in that order, 0.17 and 0.69.
